Experimental data: ChEMBL document CHEMBL2073995, “Possible involvement of P-glycoprotein in renal excretion of pazufloxacin in rats” (Eur J Pharmacol, 2004)

Molecular target: ATP-dependent translocase ABCB1 (Homo sapiens, UniProt P08183)
Assay: TP_TRANSPORTER: cell accumulation in K562/ADR cells
Assay type: functional, cell-based

ATP-dependent translocase ABCB1, sequence (P08183 whole entry): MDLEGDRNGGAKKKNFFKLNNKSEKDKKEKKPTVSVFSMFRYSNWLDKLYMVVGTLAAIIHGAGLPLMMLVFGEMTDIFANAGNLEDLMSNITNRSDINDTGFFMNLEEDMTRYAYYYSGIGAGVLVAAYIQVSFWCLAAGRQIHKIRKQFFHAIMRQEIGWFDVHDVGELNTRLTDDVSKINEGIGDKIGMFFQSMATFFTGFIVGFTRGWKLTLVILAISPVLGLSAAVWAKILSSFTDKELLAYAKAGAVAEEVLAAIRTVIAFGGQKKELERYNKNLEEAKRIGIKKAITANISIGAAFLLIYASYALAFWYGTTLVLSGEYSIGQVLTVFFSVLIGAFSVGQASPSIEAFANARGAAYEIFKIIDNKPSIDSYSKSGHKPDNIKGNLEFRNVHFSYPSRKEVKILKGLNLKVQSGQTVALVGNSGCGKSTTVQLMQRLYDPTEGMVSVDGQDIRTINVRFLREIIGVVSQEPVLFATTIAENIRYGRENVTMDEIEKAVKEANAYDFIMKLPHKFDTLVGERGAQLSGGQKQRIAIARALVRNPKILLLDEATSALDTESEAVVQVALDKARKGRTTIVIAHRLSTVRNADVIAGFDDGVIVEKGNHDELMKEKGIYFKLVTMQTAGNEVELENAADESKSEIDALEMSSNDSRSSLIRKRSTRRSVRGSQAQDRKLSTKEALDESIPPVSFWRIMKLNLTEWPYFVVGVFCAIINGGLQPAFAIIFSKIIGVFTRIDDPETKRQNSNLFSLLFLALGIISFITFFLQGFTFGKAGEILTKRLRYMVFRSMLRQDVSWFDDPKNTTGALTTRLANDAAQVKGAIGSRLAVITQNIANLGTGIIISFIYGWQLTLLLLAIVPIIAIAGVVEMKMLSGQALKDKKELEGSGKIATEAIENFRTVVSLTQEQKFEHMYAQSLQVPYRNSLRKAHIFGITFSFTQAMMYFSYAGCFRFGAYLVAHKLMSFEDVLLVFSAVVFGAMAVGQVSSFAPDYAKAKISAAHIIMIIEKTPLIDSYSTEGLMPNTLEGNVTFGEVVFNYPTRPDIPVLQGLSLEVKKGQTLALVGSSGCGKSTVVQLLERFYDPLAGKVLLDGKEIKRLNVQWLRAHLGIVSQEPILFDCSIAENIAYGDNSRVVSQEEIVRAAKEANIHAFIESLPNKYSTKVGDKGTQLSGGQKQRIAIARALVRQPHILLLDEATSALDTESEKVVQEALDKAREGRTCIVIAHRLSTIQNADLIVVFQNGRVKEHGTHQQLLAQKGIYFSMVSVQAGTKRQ

- Activity: substrate [+]
SMILES: C[C@H]1COc2c(C3(N)CC3)c(F)cc3c(=O)c(C(=O)O)cn1c23 [PAZUFLOXACIN]
